Assay results from patent US10087188B2, “Benzamide imidazopyrazine Btk inhibitors” (MERCK SHARP & DOHME CORP., priority 2014, dated 2018).
Where two headings read alike, the source gives them in different places.

Experiments:
[1] = target: BTK enzyme (recombinant full-length BTK, hBTK) (Homo sapiens (Human), UniProt Q06187); test: Btk enzyme activity assay, LANCE TR-FRET; type: biochemical; conditions: 50 pM hBTK, 2 μM biotin-A5-peptide, 25 μM ATP; 60 minute compound & enzyme incubation; read-out: BTK binding IC50
Chain of BTK enzyme (recombinant full-length BTK, hBTK) (Q06187 whole entry): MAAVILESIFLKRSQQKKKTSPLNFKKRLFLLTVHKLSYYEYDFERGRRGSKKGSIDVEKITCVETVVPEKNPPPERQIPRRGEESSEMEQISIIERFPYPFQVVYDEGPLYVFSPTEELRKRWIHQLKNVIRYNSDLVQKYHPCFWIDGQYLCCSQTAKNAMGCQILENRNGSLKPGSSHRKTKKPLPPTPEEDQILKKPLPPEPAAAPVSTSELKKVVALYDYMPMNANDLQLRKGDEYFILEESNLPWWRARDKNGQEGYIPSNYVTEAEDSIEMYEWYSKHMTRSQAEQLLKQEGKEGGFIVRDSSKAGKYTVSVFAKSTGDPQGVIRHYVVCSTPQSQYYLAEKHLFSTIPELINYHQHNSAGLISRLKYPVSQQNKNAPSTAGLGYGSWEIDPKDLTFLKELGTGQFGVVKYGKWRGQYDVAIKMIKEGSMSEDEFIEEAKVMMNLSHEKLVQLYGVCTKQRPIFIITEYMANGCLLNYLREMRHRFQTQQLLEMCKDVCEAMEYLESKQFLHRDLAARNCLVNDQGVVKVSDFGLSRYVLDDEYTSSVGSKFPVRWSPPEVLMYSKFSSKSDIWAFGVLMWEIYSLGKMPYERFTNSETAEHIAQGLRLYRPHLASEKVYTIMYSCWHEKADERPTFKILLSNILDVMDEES
Procedure: Btk Enzyme Activity Assay Methods
BTK enzymatic activity was determined with the LANCE (Lanthanide Chelate Excite) TR-FRET (Time-resolved fluorescence resonance energy transfer) assay. […] After 60 minutes incubation with detection reagents, reaction plates were read on a PerkinElmer EnVision plate reader using standard TR-FRET protocol.

HeLa cells = test: [3H] Adenosine uptake assay; type: cell-based; conditions: accumulation of tritiated adenosine into HeLa cells, compound concentration range 10 μM to 0.032 nM, read-out: ADU inhibition IC50 (adenosine uptake inhibition potency)
Procedure: Compounds are also screen in an adenosine uptake functional cellular assay using the protocol described below:
[^3H] Adenosine Uptake Assay Methods
Adenosine uptake activity was determined by monitoring the accumulation of tritiated adenosine into HeLa cells (ATCC catalog #CCL-2) using a PMT-based radiometric detection instrument. […] These cells were incubated overnight at 37° C. in a humidified atmosphere with 5% (v/v) CO2. After this time the growth medium was removed and replaced with 40 μL assay medium comprising: Hanks balanced salts solution (HBSS; Thermo Fisher Catalog #SH30268.01)+5% (v/v) FBS. Compound stock solutions in DMSO were diluted in assay medium to 2.5× final compound concentration maintaining a constant DMSO concentration of 0.25% (v/v). 40 μL of compound in assay medium was dispensed into individual wells of the Cytostar-T plates and the plates were incubated for 30 minutes under ambient laboratory conditions. Following this incubation, 20 μL of 500 nM[^3H] adenosine (American Radiolabeled Chemicals Inc. Catalog #ART0287) in assay medium was added and incubated for a further 60 minutes under ambient laboratory conditions. The amount of radiolabel accumulation was then determined using a Perkin Elmer Topcount NXT microplate reader. In brief, HeLa cells adhere to the bottom of the Cytostar-T plate, uptake of [^3H]adenosine into these cells brings the radiolabel into sufficient proximity to excite the scintillant in the base of the plates. These events are captured by single PMT, time-resolved coincidence counting. IC50 values were determined by 4 parameter robust fit of counts per second values vs. (Log10) compound concentrations.

SMILES | IC50 [1] | IC50 (HeLa cells; Homo sapiens, HeLa) | IC50 (HeLa cells)
C[C@]1(C(=O)O)CCCN(c2nc(-c3ccc(C(=O)Nc4cc(C(F)(F)F)ccn4)cc3)c3c(N)nccn23)C1 [Example 42, (3S)-1-[8-amino-1-(4-{[4-(trifluoromethyl)pyridin-2-yl]carbamoyl}phenyl)imidazo[1,5-a]pyrazin-3-yl]-3-methylpiperidine-3-carboxylic acid] | 22.9 nM | 2770 nM | –
Nc1nccn2c([C@H]3CN(C4CC(C(=O)O)C4)CCO3)nc(-c3ccc(C(=O)Nc4cc(C(F)(F)F)ccn4)cc3)c12 (stereo partly drawn) [Example 179, 3-{(2R)-2-[8-amino-1-(4-{[4-(trifluoromethyl)pyridin-2-yl]carbamoyl}phenyl)imidazo [1,5-a]pyrazin-3-yl]morpholin-4-yl}cyclobutanecarboxylic acid] | 0.93 nM | 4730 nM | –
CCOc1cc(C(=O)Nc2cc(C(F)(F)F)ccn2)ccc1-c1nc([C@@H]2C[C@@H]3[C@H](C2)[C@H]3C(=O)O)n2ccnc(N)c12 [Example 135, (1R,3R,5S,6r)-3-[8-amino-1-(2-ethoxy-4-{[4-(trifluoromethyl)pyridin-2-yl]carbamoyl}phenyl)imidazo[1,5-a]pyrazin-3-yl]bicyclo[3.1.0] hexane-6-carboxylic acid] | 0.43 nM | 6780 nM | –
C[C@]1(C(=O)O)CC[C@H](N2CCO[C@@H](c3nc(-c4ccc(C(=O)Nc5cc(C6CC6)ccn5)cc4F)c4c(N)nccn34)C2)CC1 [Example 197, trans-4-[(2R)-2-(8-amino-1-{4-[(4-cyclopropylpyridin-2-yl)carbamoyl]-2-fluorophenyl}imidazo[1,5-a]pyrazin-3-yl)morpholin-4-yl]-1-methylcyclohexanecarboxylic acid] | 1.2 nM | 2950 nM | –
CCOc1cc(C(=O)Nc2cc(C(F)(F)F)ccn2)cc(F)c1-c1nc([C@@H]2CC[C@](C)(C(=O)O)C2(C)C)n2c(F)cnc(N)c12 [Example 118, (1S,3R)-3-[8-amino-1-(2-ethoxy-6-fluoro-4-{[4-(trifluoromethyl)pyridin-2-yl]carbamoyl}phenyl)-5-fluoroimidazo[1,5-a]pyrazin-3-yl]-1,2,2-trimethylcyclopentane carboxylic acid] | 1.3 nM | 10000 nM | –
CCOc1cc(C(=O)Nc2cc(C(F)(F)F)n(C)n2)ccc1-c1nc([C@H]2CC[C@](C(=O)O)(C(C)C)C2)n2ccnc(N)c12 [Example 58, (1R,3S)-3-[8-amino-1-(2-ethoxy-4-{[1-methyl-5-(trifluoromethyl)-1H-pyrazol-3-yl]carbamoyl}phenyl)imidazo[1,5-a]pyrazin-3-yl]-1-(1-methylethyl) cyclopentane-carboxylic acid] | 27.6 nM | 10000 nM | –
COc1cc(C(=O)Nc2cc(C(F)(F)F)ccn2)ccc1-c1nc(C23C4C5C2C2C3C4C52C(=O)O)n2ccnc(N)c12 (stereo not drawn) [Example 75, 4-(8-amino-1-(2-methoxy-4-((4-(trifluoromethyl)pyridin-2-yl)carbamoyl)phenyl)imidazo[1,5-a]pyrazin-3-yl)cubane-1-carboxylic acid] | 0.56 nM | 742 nM | –
CC(C)(C(=O)O)C1CCC(c2nc(-c3ccc(C(=O)Nc4cc(C(F)(F)F)ccn4)cc3)c3c(N)nccn23)C1 (stereo not drawn) [Example 97, 2-{3-[8-amino-1-(4-{[4-(trifluoromethyl)pyridin-2-yl]carbamoyl}phenyl)imidazo[1,5-a]pyrazin-3-yl]cyclopentyl}-2-methylpropanoic acid] | 0.87 nM | – | 7530 nM
CCOc1cc(C(=O)Nc2cc(C(F)(F)F)ccn2)ccc1-c1nc([C@]2(C)CC[C@@](C)(C(=O)O)C2)n2ccnc(N)c12 [Example 85, (1R,3R)-3-[8-amino-1-(2-ethoxy-4-{[4-(trifluoromethyl)pyridin-2-yl]carbamoyl}phenyl)imidazo[1,5-a]pyrazin-3-yl]-1,3-dimethylcyclopentane carboxylic acid] | 1.4 nM | 10000 nM | –
CCOc1cc(C(=O)Nc2cc(C(F)(F)F)ccn2)ccc1-c1nc([C@H]2CC[C@](C(=O)O)(C(C)C)C2)n2ccnc(N)c12 [Example 62, (1R,3S)-3-[8-amino-1-(2-ethoxy-4-{[4-(trifluoromethyl)pyridin-2-yl]carbamoyl}phenyl)imidazo[1,5-a]pyrazin-3-yl]-1-(1-methylethyl) cyclopentane-carboxylic acid] | 12.2 nM | 10000 nM | –
CC(C)C1(C(=O)O)CCC(C)(c2nc(-c3ccc(C(=O)Nc4cc(C(F)(F)F)ccn4)cc3)c3c(N)nccn23)C1 (stereo not drawn) [Example 146, 3-[8-amino-1-(4-{[4-(trifluoromethyl)pyridin-2-yl]carbamoyl}phenyl)imidazo[1,5-a]pyrazin-3-yl]-3-methyl-1-(1-methylethyl) cyclopentane-carboxylic acid] | 456 nM | – | 10000 nM
Nc1nccn2c([C@H]3CC[C@H](CC(=O)O)C3)nc(-c3ccc(C(=O)Nc4cc(C(F)(F)F)ccn4)cc3)c12 [Example 51, {(1S,3S)-3-[8-amino-1-(4-{[4-(trifluoromethyl)pyridin-2-yl]carbamoyl}phenyl)imidazo[1,5-a]pyrazin-3-yl]cyclopentyl}acetic acid] | 0.29 nM | 4000 nM | –
CCOc1cc(C(=O)Nc2cc(C(F)(F)F)ccn2)ccc1-c1nc(C2(C)CCC(C)(C(=O)O)C2)n2ccnc(N)c12 (stereo not drawn) [Example 22, 3-(8-amino-1-(2-ethoxy-4-((4-(trifluoromethyl)pyridin-2-yl)carbamoyl)phenyl)imidazo[1,5-a]pyrazin-3-yl)-1,3-dimethylcyclopentanecarboxylic acid] | 0.66 nM | 6290 nM | –
CCOc1cc(C(=O)Nc2cc(C(F)(F)F)ccn2)ccc1-c1nc([C@@H]2CCC[C@@](C(=O)O)(C(C)C)C2)n2ccnc(N)c12 [Example 88, (1S,3R)-3-[8-amino-1-(2-ethoxy-4-{[4-(trifluoromethyl)pyridin-2-yl]carbamoyl}phenyl)imidazo[1,5-a]pyrazin-3-yl]-1-(1-methylethyl) cyclohexane-carboxylic acid] | 38.5 nM | 3690 nM | –
C[C@@]1(C(=O)O)CCC[C@H](c2nc(-c3ccc(C(=O)Nc4cc(C5CC5)ccn4)cc3F)c3c(N)nccn23)C1 [Example 160, (1R,3S)-3-(8-amino-1-{4-[(4-cyclopropylpyridin-2-yl)carbamoyl]-2-fluorophenyl}imidazo [1,5-a]pyrazin-3-yl)-1-methylcyclohexane-carboxylic acid] | 0.96 nM | 4510 nM | –
Nc1nccn2c([C@@H]3CCC[C@H](C(=O)O)C3)nc(-c3ccc(C(=O)Nc4cc(C5CC5)ccn4)cc3)c12 [Example 8, (1S,3R)-3-(8-amino-1-{4-[(4-cyclopropyl-pyridin-2-yl)carbamoyl]phenyl}imidazo [1,5-a]pyrazin-3-yl)cyclohexane-carboxylic acid] | 2.1 nM | – | –
Nc1nccn2c([C@H]3CN(C(=O)C4(C(=O)O)CCC4)CCO3)nc(-c3ccc(C(=O)Nc4cc(C(F)(F)F)ccn4)cc3F)c12 [Example 178, 1-({(2R)-2-[8-amino-1-(2-fluoro-4-{[4-(trifluoromethyl)pyridin-2-yl]carbamoyl}phenyl)imidazo [1,5-a]pyrazin-3-yl]morpholin-4-yl}carbonyl)cyclobutane-carboxylic acid] | 8.6 nM | – | –
COc1cc(C(=O)Nc2cc(C(F)(F)F)ccn2)ccc1-c1nc([C@@H]2CCC[C@H](C(=O)O)C2)n2ccnc(N)c12 [Example 11, (1S,3R)-3-[8-amino-1-(2-methoxy-4-{[4-(trifluoromethyl)pyridin-2-yl]carbamoyl}phenyl)imidazo [1,5-a]pyrazin-3-yl]cyclohexane-carboxylic acid] | 1.6 nM | – | –
C[C@]1(C(=O)O)CCC[C@@H](c2nc(-c3ccc(C(=O)Nc4cc(C5CC5)ccn4)cc3)c3c(N)nccn23)C1 [Example 155, (1S,3R)-3-(8-amino-1-{4-[(4-cyclopropylpyridin-2-yl)carbamoyl]phenyl}imidazo[1,5-a]pyrazin-3-yl)-1-methylcyclohexane-carboxylic acid] | 2.8 nM | – | –
CCc1ccnc(NC(=O)c2ccc(-c3nc([C@@H]4CCC[C@H](C(=O)O)C4)n4ccnc(N)c34)cc2)c1 [Example 7, (1S,3R)-3-(8-amino-1-{4-[(4-ethylpyridin-2-yl)carbamoyl]phenyl}imidazo [1,5-a]pyrazin-3-yl)cyclohexane-carboxylic acid] | 1.4 nM | – | –
Nc1nccn2c([C@H]3CCC[C@@H](C(=O)O)C3)nc(-c3ccc(C(=O)Nc4cc(C5CC5)ccn4)cc3)c12 [Example 4, (1R,3S)-3-(8-amino-1-{4-[(4-cyclopropyl-pyridin-2-yl)carbamoyl]phenyl}imidazo [1,5-a]pyrazin-3-yl)cyclohexane-carboxylic acid] | 29.5 nM | – | –
